In this assay the target is T1, human CRF1 receptor (Homo sapiens, UniProt P34998).
T1 construct: expressed in transfected cells; host or cells: CHO cells (membrane fraction)
T1 sequence (P34998 24-415): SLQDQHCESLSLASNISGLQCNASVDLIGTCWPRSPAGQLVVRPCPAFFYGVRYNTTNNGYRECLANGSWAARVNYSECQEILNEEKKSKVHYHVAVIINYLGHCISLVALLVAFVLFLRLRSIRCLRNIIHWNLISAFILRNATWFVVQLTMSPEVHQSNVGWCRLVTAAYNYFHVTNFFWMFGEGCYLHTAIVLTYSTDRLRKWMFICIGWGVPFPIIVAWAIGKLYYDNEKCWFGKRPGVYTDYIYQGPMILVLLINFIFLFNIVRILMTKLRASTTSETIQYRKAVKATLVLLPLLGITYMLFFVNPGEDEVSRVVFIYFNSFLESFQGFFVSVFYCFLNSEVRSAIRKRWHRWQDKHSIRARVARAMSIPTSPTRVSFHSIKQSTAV
As to the kind of experiment: Measurement of CRF binding inhibitory rate (125I-CRF receptor binding, CHO cellular membrane fraction). The following applies: human CRF1 receptor expressing CHO cellular membrane fraction, 50 pM 125I-CRF; for inhibition at 1 µM: 1.5 h, read-out: Binding inhibitory rates (% inhibition); for inhibition at 1 µM / Binding inhibitory rates (% inhibition): at the presence of 1 μM of a test compound. The protocol:
A receptor binding experiment was carried out using a human CRF1 receptor expressing CHO cellular membrane fraction and ovine CRF, [^125I]-tyr^0(^125I-CRF). 1000 nM of a test compound was incubated with 1 μg of human CRF receptor expressing CHO cellular membrane fraction and 50 pM of ^125I-CRF in a binding assay buffer (50 mM Tris-HCl, 5 mM EDTA, 10 mM MgCl2, 0.05% CHAPS, 0.1% BSA, 0.5 mM PMSF, 0.1 μg/mL pepstatin, 20 μg/mL leupeptin, pH 7.5). In addition, for measuring nonspecific binding (NSB), 0.1 μM unlabelled human Urocortin was incubated with 5 μg of human CRF receptor expressing CHO cellular membrane fraction and 50 pM of ^125I-CRF in a binding assay buffer. After a binding reaction was carried out at room temperature for 1.5 hr, the membrane was entrapped on a glass filter (UniFilter plate GF-C/Perkin Elmer) by suction filtration using a cell harvester (Perkin Elmer), and washed with ice-cooled 50 mM Tris-HCl (pH 7.5). After drying the glass filter, a liquid scintillation cocktail (Microscinti 0, Perkin Elmer) was added, and the radioactivity of ^125I-CRF remaining on a glass filter was measured using Topcount (Perkin Elmer).
(TB-SB)/(TB-NSB)×100 (SB: radioactivity when a compound is added, TB: maximum binding radioactivity, NSB: nonspecific binding radioactivity) were calculated to obtain binding inhibitory rates under the range of the presence from 0.05 nM to 10 μM of each compound. The IC50 values were calculated by using GraphPad Prism software.

We go through 15 compounds from US8901141B2, “Tricyclic compounds having corticotropin-releasing factor antagonistic activity and pharmaceutical compositions containing them” (Takeda Pharmaceutical Company, Limited, priority 2008, dated 2014).

Broadly, the inhibition is the drop in the measured response relative to a control, in per cent. For orientation: IC50 means the concentration needed to halve the response being measured.

The structures appear in SMILES notation.

As to `CCC(OC(C)=O)c1ccc(Cl)c2nc3n(c12)CCCN3c1ccc(Cl)cc1Cl` (racemic) [Example 238, 1-[9-Chloro-1-(2,4-dichlorophenyl)-1,2,3,4-tetrahydropyrimido[1,2-a]benzimidazol-6-yl]propyl acetate], the inhibition at 1 µM was 98%. Regarding `CCC(OC(C)=O)c1ccc(Cl)c2nc3n(c12)CCCN3c1ccc(OC)nc1C` (racemic) [Example 265, 1-[9-Chloro-1-(6-methoxy-2-methylpyridin-3-yl)-1,2,3,4-tetrahydropyrimido[1,2-a]benzimidazol-6-yl]propyl acetate], the inhibition at 1 µM was found to be 89%. Turning to `CCC(OC(C)=O)c1ccc(Cl)c2nc3n(c12)CCCN3c1ccc(Cl)cc1Cl` (single isomer, unassigned; (+)) [Example 240, (+)-1-[9-Chloro-1-(2,4-dichlorophenyl)-1,2,3,4-tetrahydropyrimido[1,2-a]benzimidazol-6-yl]propyl acetate], the “Binding inhibitory rates (% inhibition)” value is 97%. Still for that read-out and setting: in the case of `CCC(OC(C)=O)c1ccc(Cl)c2nc3n(c12)CCCN3c1ccc(OC)nc1C` (single isomer, unassigned; (+)) [Example 267, (+)-1-[9-Chloro-1-(6-methoxy-2-methylpyridin-3-yl)-1,2,3,4-tetrahydropyrimido[1,2-a]benzimidazol-6-yl]propyl acetate] it was 96%; in that of `CCC(O)c1ccc(Cl)c2nc3n(c12)CCCN3c1ccc(Cl)cc1Cl` (single isomer, unassigned; (+)) [Example 439, (+)-1-[9-Chloro-1-(2,4-dichlorophenyl)-1,2,3,4-tetrahydropyrimido[1,2-a]benzimidazol-6-yl]propan-1-ol], 84%. Turning to `CCC(OC(C)=O)c1ccc(Cl)c2nc3n(c12)CCCN3c1ccc(Cl)cc1Cl` (single isomer, unassigned; (-)) [Example 239, (−)-1-[9-Chloro-1-(2,4-dichlorophenyl)-1,2,3,4-tetrahydropyrimido[1,2-a]benzimidazol-6-yl]propyl acetate], the inhibition at 1 µM was found to be 90%.

With `CCC(OC(C)=O)c1ccc(Cl)c2nc3n(c12)CCCN3c1ccc(OC)nc1C` (single isomer, unassigned; (-)) [Example 266, (−)-1-[9-Chloro-1-(6-methoxy-2-methylpyridin-3-yl)-1,2,3,4-tetrahydropyrimido[1,2-a]benzimidazol-6-yl]propyl acetate], the inhibition at 1 µM stood at 82%. The same measure, in the same setting: in the case of `CCC(CC)c1ccc(Cl)c2nc3n(c12)CCCCN3c1cnc(N(C)C)cc1C` [Example 25, 5-[10-Chloro-7-(1-ethylpropyl)-2,3,4,5-tetrahydro-1H-[1,3]diazepino[1,2-a]benzimidazol-1-yl]-N,N,4-trimethylpyridin-2-amine] it was 91%; in that of `CCC(O)c1ccc(Cl)c2nc3n(c12)CCCN3c1ccc(Cl)cc1Cl` (stereo not drawn) [Example 112, 1-[9-Chloro-1-(2,4-dichlorophenyl)-1,2,3,4-tetrahydropyrimido[1,2-a]benzimidazol-6-yl]propan-1-ol], 95%; in that of `COc1ccc(N2CCCn3c2nc2c(Cl)ccc(C(O)(C4CC4)C4CC4)c23)c(C)n1` [Example 276, [9-Chloro-1-(6-methoxy-2-methylpyridin-3-yl)-1,2,3,4-tetrahydropyrimido[1,2-a]benzimidazol-6-yl](dicyclopropyl)methanol], 94%. In the case of `CCN(CC)c1ccc(F)c2nc3n(c12)CCCN3c1ccc(Cl)cc1Cl` [Example 365, 1-(2,4-Dichlorophenyl)-N,N-diethyl-9-fluoro-1,2,3,4-tetrahydropyrimido[1,2-a]benzimidazol-6-amine], the inhibition at 1 µM is 95%. Same read-out and setting: in the case of `COc1ccc(C(O)(C2CC2)C2CC2)c2c1nc1n2CCCN1c1ccc(Cl)cc1Cl` [Example 369, Dicyclopropyl[1-(2,4-dichlorophenyl)-9-methoxy-1,2,3,4-tetrahydropyrimido[1,2-a]benzimidazol-6-yl]methanol] it was 96%. As for `Cc1cc(Cl)cc(Cl)c1N1CCn2c1nc1c(Cl)ccc(C(O)(C3CC3)C3CC3)c12` [Example 426, [8-Chloro-1-(2,4-dichloro-6-methylphenyl)-2,3-dihydro-1H-imidazo[1,2-a]benzimidazol-5-yl](dicyclopropyl)methanol], the inhibition at 1 µM stood at 98%. Same read-out and setting: in the case of `CCC(CCO)c1ccc(Cl)c2nc3n(c12)CCCN3c1ccc(Cl)cc1Cl` (stereo not drawn) [Example 450, 3-[9-Chloro-1-(2,4-dichlorophenyl)-1,2,3,4-tetrahydropyrimido[1,2-a]benzimidazol-6-yl]pentan-1-ol] it was 98%. As for `COc1ccc(N2CCCn3c2nc2c(Cl)ccc(C(OCC(F)(F)F)C4CC4)c23)c(Cl)c1` (stereo not drawn) [Example 468, 9-Chloro-1-(2-chloro-4-methoxyphenyl)-6-[cyclopropyl(2,2,2-trifluoroethoxy)methyl]-1,2,3,4-tetrahydropyrimido[1,2-a]benzimidazole], the IC50 (0.05 nM to 10 μM of compound, read-out: IC50 values (CRF binding inhibition)) was below 1000 nM.
